Results reported in PubChem BioAssay (NCI).
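48-hour exposure; five concentrations; linearly interpolated endpoints. At the TGI there is no net growth.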

What was measured:
Test in all cases: growth of human tumour cells (NCI), 48 h
786-0 renal = tested on: 786-0 renal
COLO 205 colon = tested on: COLO 205 colon
OVCAR-4 ovarian = tested on: OVCAR-4 ovarian
U251 CNS = tested on: U251 CNS
CAKI-1 renal = tested on: CAKI-1 renal
K-562 leukemia = tested on: K-562 leukemia
HCT-116 colon = tested on: HCT-116 colon
SN12C renal = tested on: SN12C renal
SNB-75 CNS = tested on: SNB-75 CNS
M14 melanoma = tested on: M14 melanoma
LXFL 529 NSCLC = tested on: LXFL 529 NSCLC
SF-268 CNS = tested on: SF-268 CNS
RPMI-8226 leukemia = tested on: RPMI-8226 leukemia
NCI-H226 lung = tested on: NCI-H226 lung
RXF 393 renal = tested on: RXF 393 renal
OVCAR-5 ovarian = tested on: OVCAR-5 ovarian
KM20L2 colon = tested on: KM20L2 colon
SK-MEL-28 melanoma = tested on: SK-MEL-28 melanoma
CCRF-CEM leukemia = tested on: CCRF-CEM leukemia
HCT-15 colon = tested on: HCT-15 colon
XF 498 CNS = tested on: XF 498 CNS
HL-60(TB) leukemia = tested on: HL-60(TB) leukemia
DLD-1 colon = tested on: DLD-1 colon
SK-MEL-2 melanoma = tested on: SK-MEL-2 melanoma
DMS 114 small cell lung = tested on: DMS 114 small cell lung
SK-OV-3 ovarian = tested on: SK-OV-3 ovarian
A549 NSCLC = tested on: A549 NSCLC
EKVX NSCLC = tested on: EKVX NSCLC
SW-620 colon = tested on: SW-620 colon
NCI-H522 lung = tested on: NCI-H522 lung
HOP-62 NSCLC = tested on: HOP-62 NSCLC
HCC-2998 colon = tested on: HCC-2998 colon
ACHN renal = tested on: ACHN renal
KM12 colon = tested on: KM12 colon
LOX IMVI melanoma = tested on: LOX IMVI melanoma
SNB-78 CNS = tested on: SNB-78 CNS
DMS 273 small cell lung = tested on: DMS 273 small cell lung
OVCAR-8 ovarian = tested on: OVCAR-8 ovarian
HOP-92 NSCLC = tested on: HOP-92 NSCLC
SF-295 CNS = tested on: SF-295 CNS
SNB-19 CNS = tested on: SNB-19 CNS
SK-MEL-5 melanoma = tested on: SK-MEL-5 melanoma
UO-31 renal = tested on: UO-31 renal
SR leukemia = tested on: SR leukemia
NCI-H23 lung = tested on: NCI-H23 lung
IGROV1 ovarian = tested on: IGROV1 ovarian
TK-10 renal = tested on: TK-10 renal
NCI-H460 lung = tested on: NCI-H460 lung
M19-MEL melanoma = tested on: M19-MEL melanoma
HT29 colon = tested on: HT29 colon
SF-539 CNS = tested on: SF-539 CNS
MALME-3M melanoma = tested on: MALME-3M melanoma
UACC-257 melanoma = tested on: UACC-257 melanoma
UACC-62 melanoma = tested on: UACC-62 melanoma
MOLT-4 leukemia = tested on: MOLT-4 leukemia
OVCAR-3 ovarian = tested on: OVCAR-3 ovarian

Measured: TGI

Cn1cccc(C(=O)c2ccccc2)c1=O
> 100 µM: all assays above
